Tests used:
[1] = molecular target: T1, Tyrosine-protein kinase JAK1 (Homo sapiens, UniProt P23458); assay: Inhibition of JAK1 (unknown origin) after 1 hr by FRET-based Z'-Lyte assay
[2] = molecular target: T2, Tyrosine-protein kinase JAK2 (Homo sapiens, UniProt O60674); assay: Inhibition of JAK2 (unknown origin) after 1 hr FRET-based Z'-Lyte assay
Homo sapiens = organism: Homo sapiens; assay: Selectivity ratio of IC50 for JAK1 (unknown origin) to IC50 for JAK2 (unknown origin)
[3] = molecular target: T1, Tyrosine-protein kinase JAK1; assay: Inhibition of JAK1 (unknown origin) at 10 uM after 1 hr by FRET-based Z'-Lyte assay
[4] = molecular target: T1, Tyrosine-protein kinase JAK1; assay: Inhibition of JAK1 (unknown origin) at 20 uM after 1 hr by FRET-based Z'-Lyte assay
[5] = molecular target: T1, Tyrosine-protein kinase JAK1
Description: Inhibition of human recombinant JAK1 (852 to 1142 residues) by Z-Lyte assay

[6] = molecular target: T2, Tyrosine-protein kinase JAK2
Description: Inhibition of human recombinant JAK2 (808 to 1132 residues) by Z-Lyte assay

T2 sequence (O60674 whole entry): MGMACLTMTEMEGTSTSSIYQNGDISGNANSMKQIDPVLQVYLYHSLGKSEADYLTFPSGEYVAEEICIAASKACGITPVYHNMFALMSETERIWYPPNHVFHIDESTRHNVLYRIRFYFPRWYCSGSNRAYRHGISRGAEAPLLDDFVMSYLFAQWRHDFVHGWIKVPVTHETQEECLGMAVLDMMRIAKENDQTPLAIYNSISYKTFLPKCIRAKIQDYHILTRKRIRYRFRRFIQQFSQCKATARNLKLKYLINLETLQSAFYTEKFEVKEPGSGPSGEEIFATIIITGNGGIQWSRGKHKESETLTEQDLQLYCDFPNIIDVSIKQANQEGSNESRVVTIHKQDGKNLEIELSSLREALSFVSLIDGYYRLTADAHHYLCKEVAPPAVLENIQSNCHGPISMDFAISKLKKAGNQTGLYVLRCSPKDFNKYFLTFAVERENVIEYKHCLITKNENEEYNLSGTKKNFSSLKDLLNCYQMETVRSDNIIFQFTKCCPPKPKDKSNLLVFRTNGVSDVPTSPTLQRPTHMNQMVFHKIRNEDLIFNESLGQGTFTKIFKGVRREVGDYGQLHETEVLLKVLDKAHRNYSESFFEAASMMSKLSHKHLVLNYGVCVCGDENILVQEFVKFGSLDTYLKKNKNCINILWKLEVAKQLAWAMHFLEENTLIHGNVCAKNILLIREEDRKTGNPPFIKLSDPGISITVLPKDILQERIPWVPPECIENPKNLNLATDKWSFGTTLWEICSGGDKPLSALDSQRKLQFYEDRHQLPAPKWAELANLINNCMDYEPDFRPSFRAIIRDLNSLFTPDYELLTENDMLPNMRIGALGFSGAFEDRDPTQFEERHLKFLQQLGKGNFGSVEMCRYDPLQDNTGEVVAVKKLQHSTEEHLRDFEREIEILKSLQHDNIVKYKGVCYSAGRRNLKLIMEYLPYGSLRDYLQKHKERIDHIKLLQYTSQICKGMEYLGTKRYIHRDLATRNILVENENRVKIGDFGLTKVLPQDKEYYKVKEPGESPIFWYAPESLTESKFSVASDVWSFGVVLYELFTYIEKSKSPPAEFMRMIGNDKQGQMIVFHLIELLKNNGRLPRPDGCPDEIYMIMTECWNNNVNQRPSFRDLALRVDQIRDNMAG
T1 sequence (P23458 whole entry): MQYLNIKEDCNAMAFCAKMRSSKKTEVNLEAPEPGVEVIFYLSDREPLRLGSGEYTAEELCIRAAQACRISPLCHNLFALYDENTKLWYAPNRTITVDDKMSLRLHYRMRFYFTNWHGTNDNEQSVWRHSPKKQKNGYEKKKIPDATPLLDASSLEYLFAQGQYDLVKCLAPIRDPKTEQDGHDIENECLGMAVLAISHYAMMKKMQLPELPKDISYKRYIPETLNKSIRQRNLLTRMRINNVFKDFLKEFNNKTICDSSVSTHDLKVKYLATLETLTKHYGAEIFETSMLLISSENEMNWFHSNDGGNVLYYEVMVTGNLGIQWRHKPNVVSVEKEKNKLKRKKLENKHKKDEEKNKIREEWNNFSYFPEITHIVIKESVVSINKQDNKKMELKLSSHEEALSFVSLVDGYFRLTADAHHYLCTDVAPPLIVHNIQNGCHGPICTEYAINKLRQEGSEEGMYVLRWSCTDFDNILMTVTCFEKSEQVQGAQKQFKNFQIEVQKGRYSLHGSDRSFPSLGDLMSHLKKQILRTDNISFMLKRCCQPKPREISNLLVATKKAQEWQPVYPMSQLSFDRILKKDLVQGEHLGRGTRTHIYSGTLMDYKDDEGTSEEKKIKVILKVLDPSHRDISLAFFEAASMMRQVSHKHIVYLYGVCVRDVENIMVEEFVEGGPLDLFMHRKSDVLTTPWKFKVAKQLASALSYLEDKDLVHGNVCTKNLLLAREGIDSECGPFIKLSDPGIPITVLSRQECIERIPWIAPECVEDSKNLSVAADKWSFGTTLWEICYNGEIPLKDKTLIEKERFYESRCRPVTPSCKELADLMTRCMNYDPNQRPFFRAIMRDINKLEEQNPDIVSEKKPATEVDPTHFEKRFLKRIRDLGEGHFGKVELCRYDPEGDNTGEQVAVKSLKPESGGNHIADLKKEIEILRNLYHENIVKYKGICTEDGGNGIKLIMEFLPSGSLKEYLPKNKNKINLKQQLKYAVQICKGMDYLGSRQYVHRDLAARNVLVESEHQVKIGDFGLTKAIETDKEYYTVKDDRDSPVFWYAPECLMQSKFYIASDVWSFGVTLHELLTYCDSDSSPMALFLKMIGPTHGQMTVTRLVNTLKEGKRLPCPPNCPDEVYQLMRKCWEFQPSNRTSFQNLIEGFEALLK

| IC50 [1] [nM] | IC50 [2] [nM] | Ratio IC50 (Homo sapiens) | inhibition [3] [%] | inhibition [4] [%] | IC50 [5] [nM] | IC50 [6] [nM] | SMILES |
| --- | --- | --- | --- | --- | --- | --- | --- |
| 1820 | 101 | 18 | – | – | – | – | Nc1n[nH]c2ccc(NC(=O)c3ccccc3Cl)cc12 |
| – | 76600 | – | 10 | – | – | – | Nc1n[nH]c2ccc(NC(=O)c3c(Cl)cccc3-n3cnnn3)cc12 |
| 10500 | 2780 | 3.78 | – | – | – | – | Nc1n[nH]c2ccc(NC(=O)c3ccccc3)cc12 |
| 151 | 23 | 6.57 | – | – | – | – | Nc1n[nH]c2ccc(NC(=O)c3cc(Cl)ccc3Cl)cc12 |
| 2270 | 126 | 18 | – | – | – | – | Nc1n[nH]c2ccc(C(=O)Nc3ccccc3Cl)cc12 |
| 8530 | 453 | 18.8 | – | – | – | – | O=C(Nc1ccc2[nH]ncc2c1)c1ccccc1Cl |
| 460 | 28 | 16 | – | – | – | – | Nc1n[nH]c2ccc(C(=O)Nc3c(Cl)cccc3Cl)cc12 |
| 33900 | 6340 | 5.3 | – | – | – | – | Nc1n[nH]c2ccc(NC(=O)c3ccccc3-n3cnnn3)cc12 |
| 10800 | 3230 | 3.78 | – | – | – | – | Nc1n[nH]c2ccc(C(=O)Nc3ccccc3)cc12 |
| 1510 | 411 | 3.67 | – | – | – | – | Nc1n[nH]c2ccc(NC(=O)c3cccc(Cl)c3Cl)cc12 |
| 414 | 38 | 11 | – | – | – | – | Nc1n[nH]c2ccc(C(=O)Nc3cc(Cl)ccc3Cl)cc12 |
| 943 | 583 | 1.63 | – | – | – | – | Nc1n[nH]c2ccc(NC(=O)c3cccc(Cl)c3)cc12 |
| 22000 | 1970 | 11 | – | – | – | – | CCNc1ccccc1C(=O)Nc1ccc2[nH]nc(N)c2c1 |

Continued, compound first:

| SMILES | IC50 [1] [nM] | IC50 [2] [nM] | Ratio IC50 (Homo sapiens) | inhibition [3] [%] | inhibition [4] [%] | IC50 [5] [nM] | IC50 [6] [nM] |
| --- | --- | --- | --- | --- | --- | --- | --- |
| Clc1cccc(-n2cnnn2)c1-c1nc(-c2ccc3[nH]ncc3c2)cs1 | 21600 | 1680 | 12.8 | – | – | – | – |
| c1ccc(-n2cnnn2)c(-c2cn(-c3ccc4[nH]ncc4c3)nn2)c1 | 8800 | 9530 | 0.9 | – | – | – | – |
| O=C(Nc1ccc2[nH]ncc2c1)c1ccccc1 | – | – | – | – | 17 | – | – |
| O=C(Nc1ccc2[nH]ncc2c1)c1cccc(-n2cnnn2)c1 | 764 | 718 | 1 | – | – | – | – |
| O=C(Nc1ccc2[nH]ncc2c1)c1ccccc1Cn1cnnn1 | 9670 | 3540 | 2.7 | – | – | – | – |
| O=C(Nc1ccc2[nH]ncc2c1)c1c(Cl)cccc1-n1cnnn1 | 11500 | 820 | 14 | – | – | – | – |
| c1ccc(-n2cnnn2)c(-c2nc(-c3ccc4[nH]ncc4c3)cs2)c1 | 7940 | 1540 | 5 | – | – | – | – |
| CCNc1ccccc1C(=O)Nc1ccc2[nH]ncc2c1 | 24100 | 3960 | 6 | – | – | – | – |
| Nc1n[nH]c2ccc(-c3cnc(-c4ccccc4-n4cnnn4)s3)cc12 | 9290 | 3250 | 2.85 | – | – | – | – |
| O=C(Nc1ccc2[nH]ncc2c1)c1cccc(Cn2cnnn2)c1 | – | – | – | – | 20 | – | – |
| c1ccc(-n2cnnn2)c(-c2cc(-c3ccc4[nH]ncc4c3)on2)c1 | 3300 | 2000 | 1.65 | – | – | – | – |
| O=C(Nc1ccc2[nH]ncc2c1)c1ccccc1-n1cnnn1 | 33000 | 2380 | 14 | – | – | – | – |
| CNS(=O)(=O)C[C@H]1CC[C@H](N(C)c2ncnc3[nH]ccc23)CC1 [OCLACITINIB] | – | – | – | – | – | 10 | 18 |
